Here are results for 21 compounds from PubChem BioAssay (NCI).

Among the test systems are DMS 273 small cell lung; RPMI-8226 leukemia; U251 CNS; SK-MEL-28 melanoma; HCT-15 colon; SF-268 CNS; CAKI-1 renal; M19-MEL melanoma; SK-OV-3 ovarian; DU-145 prostate.
Holding throughout (assay): NCI tumour cell line growth inhibition, 48 h

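Interpolation was linear, between the two tested concentrations surrounding the appropriate level; five concentrations were tested over 48 hours in 96-well plates. GI50 marks 50% less growth. The concentration for full growth arrest is given as TGI.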 Some results are limits rather than exact numbers.

`FC(F)(F)c1nc(Br)[nH]c1C(F)(F)F`: the TGI in the test with DMS 273 small cell lung, in the test with RPMI-8226 leukemia, in the test with U251 CNS, in the test on SK-MEL-28 melanoma, in the test with HCT-15 colon and with SF-268 CNS was above 100 µM in each case. Besides, the TGI in the test with CAKI-1 renal, in the test on M19-MEL melanoma and in the test with SK-OV-3 ovarian was above 100 µM in each case.
On to `O=C(NCc1ccccc1)C1C(=O)C(=O)N(Cc2ccccc2)C1=O` (centres undefined), for which the TGI in the test with DMS 273 small cell lung, in the test with RPMI-8226 leukemia, in the test on U251 CNS, in the test with SK-MEL-28 melanoma, in the test on HCT-15 colon and with SF-268 CNS was above 100 µM in each case. Moreover, the TGI with CAKI-1 renal, with M19-MEL melanoma and with SK-OV-3 ovarian was above 100 µM each time.
As to `Cc1ccc(NC(=O)CCC(=O)C2Cc3ccccc3C2=O)cc1C` (centres undefined), the TGI in the test with DMS 273 small cell lung, in the test on RPMI-8226 leukemia, in the test with U251 CNS, in the test on SK-MEL-28 melanoma, in the test on HCT-15 colon and in the test with SF-268 CNS was above 100 µM in each case. For the same compound, the TGI with CAKI-1 renal, in the test with M19-MEL melanoma and in the test with SK-OV-3 ovarian was above 100 µM each time.
For `O=C(O)CCSC(=O)Nc1ccccc1`, the TGI with DMS 273 small cell lung, in the test on RPMI-8226 leukemia, in the test with U251 CNS, in the test with SK-MEL-28 melanoma, in the test with HCT-15 colon and in the test on SF-268 CNS was above 100 µM in each case. Besides, in the test with CAKI-1 renal, the TGI is above 100 µM.
Regarding `CCOC(=O)CCn1cnc(N)n1`, the TGI with DMS 273 small cell lung, in the test with RPMI-8226 leukemia, with U251 CNS, in the test on SK-MEL-28 melanoma, with HCT-15 colon and in the test with CAKI-1 renal was above 100 µM each time. In addition, the TGI in the test with M19-MEL melanoma and in the test on SK-OV-3 ovarian was above 100 µM throughout.
On to `C=C1C(C(=O)O)C1C(=O)O` (centres undefined), for which the TGI with DMS 273 small cell lung, in the test on RPMI-8226 leukemia, in the test on U251 CNS, with SK-MEL-28 melanoma, with HCT-15 colon and in the test with SF-268 CNS was above 100 µM throughout. The TGI in the test on CAKI-1 renal, with M19-MEL melanoma and with SK-OV-3 ovarian was above 100 µM throughout.
On to `CCc1cccc(NC(=O)c2cc(/C=C/c3ccccc3)[nH]c(=S)n2)c1`, for which the TGI with DMS 273 small cell lung, in the test on RPMI-8226 leukemia, in the test on U251 CNS, with SK-MEL-28 melanoma, in the test with HCT-15 colon and in the test on SF-268 CNS was above 100 µM in each case. For the same compound, the TGI with M19-MEL melanoma and with SK-OV-3 ovarian was above 100 µM each time.
`CC(=O)[CH-]C(=O)c1ccccc1.CC(=O)[CH-]C(=O)c1ccccc1.CC(=O)[CH-]C(=O)c1ccccc1.[Br-].[Zr+4]`: the GI50 in the test with RPMI-8226 leukemia was 72.5 µM; with U251 CNS, 67.7 µM; in the test on SK-MEL-28 melanoma, 55.3 µM; in the test with HCT-15 colon, 89.7 µM; in the test on SF-268 CNS, 56.7 µM; in the test with CAKI-1 renal it was 37.2 µM. For the same compound, the GI50 in the test on M19-MEL melanoma is 85.8 µM; in the test with SK-OV-3 ovarian, 74.8 µM. Also, the TGI in the test on RPMI-8226 leukemia, in the test with U251 CNS, in the test with SK-MEL-28 melanoma, in the test with HCT-15 colon, with SF-268 CNS and in the test on CAKI-1 renal was above 100 µM in each case. The TGI with M19-MEL melanoma and in the test with SK-OV-3 ovarian was above 100 µM in each case.
Consider `N#CC(C#N)=C1CCC2C(=C(C#N)C#N)CCC12` (centres undefined), for which the TGI in the test with DMS 273 small cell lung, in the test on RPMI-8226 leukemia, with U251 CNS, in the test with HCT-15 colon, in the test with SF-268 CNS and in the test on CAKI-1 renal was above 100 µM in each case. Further, the TGI with M19-MEL melanoma and in the test on SK-OV-3 ovarian was above 100 µM throughout.
Take `CCc1ccccc1NC(=O)C(=O)C(C#N)c1c(Cl)cccc1Cl` (centres undefined): the TGI with DMS 273 small cell lung, in the test with RPMI-8226 leukemia, in the test on U251 CNS, in the test on SK-MEL-28 melanoma, in the test with HCT-15 colon and in the test on SF-268 CNS was above 100 µM each time. For the same compound, the TGI with CAKI-1 renal, in the test with M19-MEL melanoma and in the test on SK-OV-3 ovarian was above 100 µM each time.
In the case of `O=C(OCc1ccccc1)n1cccc1`, the TGI in the test with DMS 273 small cell lung, in the test on RPMI-8226 leukemia, in the test on U251 CNS, in the test with SK-MEL-28 melanoma, in the test on SF-268 CNS and in the test on CAKI-1 renal was above 100 µM throughout. Besides, the TGI in the test with M19-MEL melanoma and in the test on SK-OV-3 ovarian was above 100 µM in each case.
As to `O=C1CCc2ccc(O)c(c2)Oc2ccc(cc2)[C@@H]2O[C@@H]2CO1`, the TGI in the test on RPMI-8226 leukemia, in the test on U251 CNS, with SK-MEL-28 melanoma, in the test on CAKI-1 renal, with M19-MEL melanoma and with SK-OV-3 ovarian was above 100 µM in each case.
As for `CC[P+]1(c2ccccc2)CCCCC1`, the TGI with DMS 273 small cell lung, with RPMI-8226 leukemia, with U251 CNS, with SK-MEL-28 melanoma, with HCT-15 colon and with SF-268 CNS was above 100 µM in each case. Besides, the TGI with CAKI-1 renal, in the test on M19-MEL melanoma and in the test with SK-OV-3 ovarian was above 100 µM throughout.
As for `CN(C)CCNC(=O)c1cccc2c1nc(-c1ccncc1)c1ccccc12`, the TGI in the test on DMS 273 small cell lung turned out to be 12.3 µM; in the test with U251 CNS it was 17 µM; with SK-MEL-28 melanoma, 17.6 µM; in the test on HCT-15 colon, 13.4 µM; in the test on SF-268 CNS, 19.7 µM; in the test with CAKI-1 renal, 24.5 µM. Moreover, the TGI in the test with M19-MEL melanoma was determined as 11.9 µM; with SK-OV-3 ovarian, 24.7 µM.
Turning to `CNC(=O)NCCN1N=C(C)/C(=C\c2ccccc2)CC1=O`, the TGI in the test on DMS 273 small cell lung, with RPMI-8226 leukemia, with U251 CNS, in the test on SK-MEL-28 melanoma, in the test on SF-268 CNS and with CAKI-1 renal was above 100 µM each time. Also, the TGI in the test on M19-MEL melanoma and in the test with SK-OV-3 ovarian was above 100 µM throughout.
Turning to `N#CCC(=O)Nc1ccccc1O`, the TGI in the test on DMS 273 small cell lung, in the test with RPMI-8226 leukemia, in the test with U251 CNS, in the test on SK-MEL-28 melanoma, in the test on HCT-15 colon and in the test with SF-268 CNS was above 100 µM each time. Moreover, the TGI in the test with CAKI-1 renal, in the test with M19-MEL melanoma and in the test on SK-OV-3 ovarian was above 100 µM each time.
On to `CC(C)(C)OC(=O)N1Cc2cc3ccccc3nc2C1CO` (centres undefined), for which the GI50 in the test with RPMI-8226 leukemia, in the test with U251 CNS, in the test with SK-MEL-28 melanoma, in the test with HCT-15 colon, with DU-145 prostate and in the test on SF-268 CNS was above 100 µM throughout. Moreover, the GI50 in the test on CAKI-1 renal and with SK-OV-3 ovarian was above 100 µM throughout. For the same compound, the TGI with RPMI-8226 leukemia, with U251 CNS, in the test with SK-MEL-28 melanoma, in the test with HCT-15 colon, in the test with DU-145 prostate and with SF-268 CNS was above 100 µM throughout. In addition, the TGI in the test on CAKI-1 renal and in the test on SK-OV-3 ovarian was above 100 µM throughout.
`CC1(C)CN(CCNc2nccc(-c3c(-c4cccc(O)c4)nc4sccn34)n2)S(=O)(=O)N1`: the GI50 with RPMI-8226 leukemia was 16.6 µM; with U251 CNS, 8.78 µM; with SK-MEL-28 melanoma it was 0.268 µM; in the test on HCT-15 colon, 11.5 µM; in the test on DU-145 prostate it was 7.48 µM; in the test on SF-268 CNS, 21.8 µM. Moreover, the GI50 with CAKI-1 renal is 6.12 µM; in the test with SK-OV-3 ovarian, 7.86 µM. In addition, the TGI in the test with RPMI-8226 leukemia, with U251 CNS, in the test with SK-MEL-28 melanoma, in the test with HCT-15 colon, with DU-145 prostate and in the test on SF-268 CNS was above 33.2 µM each time. Moreover, the TGI in the test with CAKI-1 renal was above 27.2 µM; in the test on SK-OV-3 ovarian it was above 33.2 µM.
On to `Cc1cn(C2CC(O)C(COC(N)=O)O2)c(=O)[nH]c1=O` (centres undefined), for which the TGI with RPMI-8226 leukemia, in the test with U251 CNS, with SK-MEL-28 melanoma, with HCT-15 colon, with DU-145 prostate and with SF-268 CNS was above 100 µM each time. Also, the TGI in the test with CAKI-1 renal and in the test on SK-OV-3 ovarian was above 100 µM each time.
Turning to `C=CCC1C(=O)CC2(C)C(CC=C)C(=O)CC12C` (centres undefined), the TGI with DMS 273 small cell lung, with RPMI-8226 leukemia, in the test with U251 CNS, with SK-MEL-28 melanoma, in the test on HCT-15 colon and in the test on CAKI-1 renal was above 100 µM each time. The TGI in the test on M19-MEL melanoma and in the test on SK-OV-3 ovarian was above 100 µM each time.
Regarding `Nc1no[n+]([O-])c1-c1nnc2c(n1)-c1ccccc1C2=O`, the GI50 in the test on RPMI-8226 leukemia was 2.76 µM; in the test with U251 CNS, 3.76 µM; in the test with SK-MEL-28 melanoma, 3.91 µM; in the test on HCT-15 colon, 1.83 µM; in the test with DU-145 prostate, 1.74 µM; with SF-268 CNS, 4.4 µM. The GI50 in the test on CAKI-1 renal was 2.3 µM; in the test on SK-OV-3 ovarian it was 16.2 µM. Also, the TGI with RPMI-8226 leukemia was found to be 7.73 µM; with U251 CNS, 13.7 µM; in the test with SK-MEL-28 melanoma, 13.4 µM; in the test with HCT-15 colon, 3.91 µM; in the test on DU-145 prostate it was 3.45 µM; in the test on SF-268 CNS, 17.3 µM. Further, the results for the TGI in the test on CAKI-1 renal and in the test on SK-OV-3 ovarian were 6.67 µM and 51.5 µM, respectively.
